A value given as a limit tells only on which side of the number the result lay.

This note sets out measurements from patent US12686687B2, “Compounds and uses thereof” (Foghorn Therapeutics Inc., priority 2019, dated 2026).

The target in one assay is T1, Nanoluciferase-BRD9 fusion protein (3×FLAG-NLuc-BRD9) in SYO-1 cells (Homo sapiens, UniProt Q9H8M2).
T1 construct: expressed in transfected cells; host or cells: SYO-1
T1 sequence (Q9H8M2 1-597): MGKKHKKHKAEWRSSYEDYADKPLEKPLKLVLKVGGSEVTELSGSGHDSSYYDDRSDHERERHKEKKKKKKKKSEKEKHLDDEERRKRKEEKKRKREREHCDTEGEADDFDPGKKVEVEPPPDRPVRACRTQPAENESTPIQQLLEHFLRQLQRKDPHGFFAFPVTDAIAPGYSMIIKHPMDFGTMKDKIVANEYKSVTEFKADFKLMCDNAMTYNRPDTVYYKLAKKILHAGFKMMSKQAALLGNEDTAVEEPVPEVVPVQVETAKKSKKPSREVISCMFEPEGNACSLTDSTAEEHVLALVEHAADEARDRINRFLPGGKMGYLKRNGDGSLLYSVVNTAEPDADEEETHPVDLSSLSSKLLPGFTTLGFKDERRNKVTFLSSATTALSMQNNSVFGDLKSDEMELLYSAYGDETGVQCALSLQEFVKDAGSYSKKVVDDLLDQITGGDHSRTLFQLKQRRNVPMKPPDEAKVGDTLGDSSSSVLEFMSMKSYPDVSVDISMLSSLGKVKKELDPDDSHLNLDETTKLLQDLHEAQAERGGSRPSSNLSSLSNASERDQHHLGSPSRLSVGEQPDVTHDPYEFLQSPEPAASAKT
In words: SYO1 BRD9 NanoLuc degradation assay. It counts as cell-based. The conditions noted are these: Table 6B; SYO-1 cells expressing 3×FLAG-NLuc-BRD9, 6 hours incubation, 1 μM top dose; read-out: SYO1 BRD9-NanoLuc degradation IC50. The gist of the method:
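Stable SYO-1 line expressing 3×FLAG-NLuc-BRD9 was seeded at 8000 cells/well, then treated next day for 6 h with 10-point 3-fold dilutions (top 1 μM final). Nano-Glo luminescence was read. % inhibition was normalised to DMSO (high control) and 1 μM reference BRD9 degrader (low control).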
In the case of `COc1cc(-c2cn(C)c(=O)c3cc(C(=O)NC4CCN(CCN5CCN(c6ccc7c(c6)CN(C6CCC(=O)NC6=O)C7=O)CC5)CC4(F)F)sc23)cc(Cl)c1CN(C)C` (stereo not drawn) [Compound D17], the DC50 was under 10 nM.

Regarding `COc1cc(-c2cn(C)c(=O)c3cc(C(=O)NCC4CC5CN(C(=O)CCN6CCN(c7ccc8c(c7)C(=O)N(C7CCC(=O)NC7=O)C8=O)CC6)CC5C4)sc23)cc(OC)c1CN(C)C` (stereo not drawn) [Compound D34], the DC50 was over 100 nM. Turning to `COc1cc(-c2cn(C)c(=O)c3cc(C(=O)NCC4CC5(CCN(CCN6CCN(c7ccc8c(c7)C(=O)N(C7CCC(=O)NC7=O)C8=O)CC6)CC5)C4)sc23)cc(OC)c1CN(C)C` (stereo not drawn) [Compound D36], the DC50 is under 10 nM. `COc1cc(-c2cn(C)c(=O)c3cc(C(=O)NC4CCN(C)CC4)sc23)cc(OC)c1CN(C)CC(=O)NCCOCCOc1cccc2c1C(=O)N(C1CCC(=O)NC1=O)C2=O` (stereo not drawn) [Compound D32]: the DC50 is over 100 nM. The same measure, in the same setting: with `COc1cc(-c2cn(C)c(=O)c3cc(C(=O)NCC4CC5CN(CCN6CCN(c7ccc8c(c7)C(=O)N(C7CCC(=O)NC7=O)C8=O)CC6)CC5C4)sc23)cc(OC)c1CN(C)C` (stereo not drawn) [Compound D43] the figure was under 10 nM. The same measure, in the same setting: with `COc1cc(-c2cn(C)c(=O)c3cc(C(=O)NC4CC5CC4CN5C(=O)CCN4CCN(c5ccc6c(c5)C(=O)N(C5CCC(=O)NC5=O)C6=O)CC4)sc23)cc(OC)c1CN(C)C` (stereo not drawn) [Compound D68] the figure was over 10 nM. With `COc1cc(-c2cn(C)c(=O)c3cc(C(=O)NC4CCN(C(=O)CN5CCC6(CC5)CN(c5ccc7c(c5)CN(C5CCC(=O)NC5=O)C7=O)C6)CC4(F)F)sc23)cc(OC)c1CN(C)C` (stereo not drawn) [Compound D18], the DC50 is under 10 nM. On the same count and under the same terms, the figure for `COc1cc(-c2cn(C)c(=O)c3cc(C(=O)NC4CCC5(CCN(C(=O)CCN6CCN(c7ccc8c(c7)C(=O)N(C7CCC(=O)NC7=O)C8=O)CC6)C5)C4)sc23)cc(OC)c1CN(C)C` (stereo not drawn) [Compound D47] is over 10 nM.

In the case of `COc1cc(-c2cn(C)c(=O)c3cc(C(=O)NC4CC5(CCN(CCN6CCN(c7ccc8c(c7)C(=O)N(C7CCC(=O)NC7=O)C8=O)CC6)CC5)C4)sc23)cc(OC)c1CN(C)C` (stereo not drawn) [Compound D41], the DC50 was under 10 nM. The same measure, in the same setting: with `COc1cc(-c2cn(C)c(=O)c3cc(C(=O)NC4C[C@@H]5CN(CCN6CCN(c7ccc8c(c7)C(=O)N(C7CCC(=O)NC7=O)C8=O)CC6)C[C@H]45)sc23)cc(OC)c1CN(C)C` (stereo partly drawn) [Compound D64] the figure was over 100 nM; with `COc1cc(-c2cn(C)c(=O)c3cc(C(=O)NC4CC5(C4)CN(CCCN4CCN(c6ccc7c(c6)C(=O)N(C6CCC(=O)NC6=O)C7=O)CC4)C5)sc23)cc(OC)c1CN(C)C` (stereo not drawn) [Compound D75], under 10 nM; with `COc1cc(-c2cn(C)c(=O)c3cc(C(=O)NC4CC5(CCN(CCN6CCN(c7ccc8c(c7)C(=O)N([C@@H]7CCC(=O)NC7=O)C8=O)CC6)C5)C4)sc23)cc(OC)c1CN(C)C` (stereo partly drawn) [Compound D65], under 10 nM.

On to `COc1cc(-c2cn(C)c(=O)c3cc(C(=O)NC4CCC5(CCN(CCN6CCN(c7ccc8c(c7)C(=O)N(C7CCC(=O)NC7=O)C8=O)CC6)C5)C4)sc23)cc(OC)c1CN(C)C` (stereo not drawn) [Compound D39], for which the DC50 is under 10 nM. Still for that read-out and setting: the figure for `COc1cc(-c2cn(C)c(=O)c3cc(C(=O)NCC4CC45CCN(CCN4CCN(c6ccc7c(c6)C(=O)N(C6CCC(=O)NC6=O)C7=O)CC4)CC5)sc23)cc(OC)c1CN(C)C` (stereo not drawn) [Compound D57] is under 10 nM. On the same count and under the same terms, the figure for `COc1cc(-c2cn(C)c(=O)c3cc(C(=O)NC4CCN(CCN5CCC6(CC5)CN(c5ccc7c(c5)CN(C5CCC(=O)NC5=O)C7=O)C6)CC4(F)F)sc23)cc(OC)c1CN(C)C` (stereo not drawn) [Compound D19] is under 10 nM. In the case of `COc1cc(-c2cn(C)c(=O)c3cc(C(=O)NC4CCN(CCN5CCN(c6ccc7c(c6)C(=O)N(C6CCC(=O)NC6=O)C7=O)CC5)CC4(F)F)sc23)cc(OC)c1CN(C)C` (stereo not drawn) [Compound D79], the DC50 is under 10 nM.

Still in this assay, the particulars now being: Table 6C; SYO-1 cells expressing 3×FLAG-NLuc-BRD9, 6 hours incubation, 1 μM top dose; read-out: SYO1 BRD9-NanoLuc degradation IC50.
`COc1cc(-c2cn(C)c(=O)c3sccc23)cc(OC)c1CN1CCC(CN2CCC3(CC2)CC(Oc2ccc4c(c2)CN(C2CCC(=O)NC2=O)C4=O)C3)CC1` (stereo not drawn) [Compound D199]: the DC50 was under 10 nM. Still for that read-out and setting: the figure for `COc1cc(-c2cn(C)c(=O)c3cc(C(=O)NC4CCN(c5ccc6c(c5)CN(C5CCC(=O)NC5=O)C6=O)CC4(F)F)sc23)cc(OC)c1CN(C)C` (stereo not drawn) [Compound D164] is under 10 nM; for `COc1cc(-c2cn(C)c(=O)c3c(C)c(C(=O)NC4CCN(C5CCN(c6ccc7c(c6)C(=O)N(C6CCC(=O)NC6=O)C7)CC5)CC4(F)F)sc23)cc(OC)c1CN(C)C` (stereo not drawn) [Compound D148] it is over 1000 nM. As to `COc1cc(-c2cn(C)c(=O)c3cc(C(=O)NC4CCN(C5CCN(c6ccc7c(c6)C(=O)N(C6CCC(=O)N(C)C6=O)C7)CC5)CC4(F)F)sc23)cc(OC)c1CN(C)C` (stereo not drawn) [Compound D142], the DC50 was over 1000 nM. On the same count and under the same terms, with `COc1cc(-c2cn(C)c(=O)c3cc(C(=O)NC4CCN(CCCCCOc5ccc6c(c5)CN(C5CCC(=O)NC5=O)C6=O)CC4(F)F)sc23)cc(OC)c1CN(C)C` (stereo not drawn) [Compound D163] the figure was under 10 nM. The same measure, in the same setting: with `COc1cc(-c2cn(C)c(=O)c3cc(C)sc23)cc(OC)c1CN1CCC(CN2CCC3(CC2)CC(Oc2ccc4c(c2)C(=O)N(C2CCC(=O)NC2=O)C4=O)C3)CC1` (stereo not drawn) [Compound D173] the figure was under 10 nM; with `COc1cc(-c2cn(C)c(=O)c3cc(C(=O)NC4CN(c5ccc6c(c5)C(=O)N(C5CCC(=O)NC5=O)C6=O)CC4(F)F)sc23)cc(OC)c1CN(C)C` (stereo not drawn) [Compound D190], under 10 nM. For `COc1cc(-c2cn(C)c(=O)c3cc(C(=O)NC4CN(c5ccc6c(c5)CN(C5CCC(=O)NC5=O)C6=O)CC4(F)F)sc23)cc(OC)c1CN(C)C` (stereo not drawn) [Compound D180], the DC50 is under 10 nM.

For the compound `COc1cc(-c2cn(C)c(=O)c3c(C)csc23)cc(OC)c1CN1CCC(CN2CCC3(CC2)CC(Oc2ccc4c(c2)C(=O)N(C2CCC(=O)NC2=O)C4=O)C3)CC1` (stereo not drawn) [Compound D160], the DC50 was under 10 nM.

As for `COc1cc(-c2cn(C)c(=O)c3ccsc23)cc(OC)c1CN1CCC2(CC1)CN(c1ccc3c(c1)C(=O)N(C1CCC(=O)NC1=O)C3=O)C2` (stereo not drawn) [Compound D183], the DC50 is under 10 nM. Same read-out and setting: with `COc1cc(-c2cn(C)c(=O)c3ccsc23)cc(OC)c1CN1CCC(CN2CCC3(CC2)CN(c2ccc4c(c2)C(=O)N(C2CCC(=O)NC2=O)C4=O)C3)CC1` (stereo not drawn) [Compound D185] the figure was under 10 nM; with `COc1cc(-c2cn(C)c(=O)c3ccsc23)cc(OC)c1CN1CCC2(CN(c3ccc4c(c3)C(=O)N(C3CCC(=O)NC3=O)C4)C2)C(F)(F)C1` (stereo not drawn) [Compound D111], under 10 nM; with `COc1cc(-c2c(C)n(C)c(=O)c3cc(C(=O)NC4CCN(C)CC4(F)F)sc23)cc(OC)c1CN1CC(CN2CCC3(CC2)CN(c2ccc4c(c2)C(=O)N(C2CCC(=O)NC2=O)C4)C3)C1` (stereo not drawn) [Compound D172], over 1000 nM. The same measure, in the same setting: the figure for `COc1cc(-c2cn(C)c(=O)c3cc(C(=O)NC4CCN(C5CN(c6ccc7c(c6)C(=O)N(C6CCC(=O)NC6=O)C7=O)C5)CC4(F)F)sc23)cc(OC)c1CN(C)C` (stereo not drawn) [Compound D191] is under 10 nM; for `COc1cc(-c2cn(C)c(=O)c3ccsc23)cc(OC)c1CN1CCC2CN(c3ccc4c(c3)C(=O)N(C3CCC(=O)NC3=O)C4)CCC2C1` (stereo not drawn) [Compound D106] it is under 10 nM; for `COc1cc(-c2cn(C)c(=O)c3ccsc23)cc(OC)c1CN1[C@H](C)CN(c2ccc3c(c2)CN(C2CCC(=O)NC2=O)C3=O)C[C@H]1C` (stereo partly drawn) [Compound D136] it is under 10 nM. Take `COc1cc(-c2cn(C)c(=O)c3cc(C#N)sc23)cc(OC)c1CN1CCC2(CC1)CN(c1ccc3c(c1)C(=O)N(C1CCC(=O)NC1=O)C3)C2` (stereo not drawn) [Compound D139]: the DC50 was under 10 nM. `COc1cc(-c2cn(C)c(=O)c3cc(C(=O)NC4CCN(c5ccc6c(c5)C(=O)N(C5CCC(=O)N(C)C5=O)C6)CC4(F)F)sc23)cc(OC)c1CN(C)C` (stereo not drawn) [Compound D143]: the DC50 was over 1000 nM. The same measure, in the same setting: with `COc1cc(-c2cn(C)c(=O)c3ccsc23)cc(OC)c1CN1CCC2CCN(c3ccc4c(c3)CN(C3CCC(=O)NC3=O)C4=O)CC2C1` (stereo not drawn) [Compound D121] the figure was under 10 nM; with `COc1cc(-c2cn(C)c(=O)c3cc(C(=O)NC4CCN(C5CC6(C5)CN(c5ccc7c(c5)C(=O)N(C5CCC(=O)NC5=O)C7)C6)CC4(F)F)sc23)cc(OC)c1CN(C)C` (stereo not drawn) [Compound D145], over 100 nM; with `COc1cc(OC)cc(-c2cn(C)c(=O)c3cc(C(=O)NC4CCN(c5cccc(OC6CCC(=O)NC6=O)c5)CC4)sc23)c1` (stereo not drawn) [Compound D96], under 10 nM.

With `COc1cc(-c2cn(C)c(=O)c3nc(C)sc23)cc(OC)c1CN1CCC2(CC1)CN(c1ccc3c(c1)C(=O)N(C1CCC(=O)NC1=O)C3)C2` (stereo not drawn) [Compound D214], the DC50 was under 10 nM. Still for that read-out and setting: the figure for `COCc1cc2c(=O)n(C)cc(-c3cc(OC)c(CN4CCC5(CC4)CN(c4ccc6c(c4)C(=O)N(C4CCC(=O)NC4=O)C6)C5)c(OC)c3)c2s1` (stereo not drawn) [Compound D119] is under 10 nM.
